Data: BindingDB's records for doi:10.1021/acs.jmedchem.0c01754 (Astrazeneca, 2020)

Target: Cyclin-T1/Cyclin-dependent kinase 9 (Homo sapiens, UniProt O60563+P50750)
Assay: Inhibition of recombinant full length human N-terminal GST-fused CDK9 (1 to 372 residues)/His-tagged CyclinT1 (1 to 726 residues) expressed in baculovirus infected insect cells using FITC-X-GSRTPMY-NH2 as substrate preincubated for 10 mins followed by MgCl2 addition and measured after 90 mins in presence of 5 mM ATP by mobility shift assay

Chain of Cyclin-T1/Cyclin-dependent kinase 9 (O60563 whole entry, the tested form may be a part): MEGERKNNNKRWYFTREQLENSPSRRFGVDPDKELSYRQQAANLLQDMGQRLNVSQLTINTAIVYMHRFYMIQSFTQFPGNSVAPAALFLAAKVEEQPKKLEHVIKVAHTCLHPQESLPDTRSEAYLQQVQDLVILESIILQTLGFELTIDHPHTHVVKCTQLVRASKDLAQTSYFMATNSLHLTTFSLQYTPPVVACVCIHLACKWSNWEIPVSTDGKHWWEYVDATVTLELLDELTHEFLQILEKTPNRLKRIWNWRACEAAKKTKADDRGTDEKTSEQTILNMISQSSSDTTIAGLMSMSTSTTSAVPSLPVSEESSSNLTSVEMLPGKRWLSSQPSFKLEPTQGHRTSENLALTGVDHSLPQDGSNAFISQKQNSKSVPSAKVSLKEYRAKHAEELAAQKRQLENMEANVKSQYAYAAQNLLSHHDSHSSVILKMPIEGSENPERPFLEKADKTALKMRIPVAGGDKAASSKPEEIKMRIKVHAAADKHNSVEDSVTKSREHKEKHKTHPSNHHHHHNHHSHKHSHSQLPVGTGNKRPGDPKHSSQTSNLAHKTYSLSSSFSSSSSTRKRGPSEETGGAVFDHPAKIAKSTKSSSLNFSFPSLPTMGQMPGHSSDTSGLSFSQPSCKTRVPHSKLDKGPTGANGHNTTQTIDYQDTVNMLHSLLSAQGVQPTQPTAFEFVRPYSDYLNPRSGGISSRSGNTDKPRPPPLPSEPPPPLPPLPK
Chain of Cyclin-T1/Cyclin-dependent kinase 9 (P50750 whole entry, the tested form may be a part): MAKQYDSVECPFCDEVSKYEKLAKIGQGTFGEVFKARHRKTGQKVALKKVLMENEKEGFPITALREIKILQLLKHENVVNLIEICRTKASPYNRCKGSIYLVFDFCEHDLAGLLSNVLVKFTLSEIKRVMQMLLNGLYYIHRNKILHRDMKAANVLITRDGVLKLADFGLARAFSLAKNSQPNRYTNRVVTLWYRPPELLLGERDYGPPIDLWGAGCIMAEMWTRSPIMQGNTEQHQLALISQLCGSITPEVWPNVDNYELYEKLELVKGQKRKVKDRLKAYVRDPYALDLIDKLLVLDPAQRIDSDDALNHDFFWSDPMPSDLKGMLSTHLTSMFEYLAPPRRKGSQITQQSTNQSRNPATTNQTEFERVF

For CC(=O)N[C@@H]1CCC[C@H](C(=O)Nc2cc(-c3cnn4c3NCCC4)c(Cl)cn2)C1 [US10717746, Example 15], the IC50 was 0.35 µM.

With CC(=O)N[C@@H]1CCC[C@H](C(=O)Nc2cc(-c3cnn4c3CC(C)(C)C4)c(F)cn2)C1 [US10717746, Example 25] the IC50 was 0.004 µM.

Compound CC1(C)Cc2c(-c3cc(NC(=O)[C@H]4C[C@@H](O)C4)ncc3Cl)cnn2C1 [US10717746, Example 27] has an IC50 of 0.025 µM.

With CC(=O)N[C@@H]1CCC[C@H](C(=O)Nc2cc(-c3cnn4c3CC(C)(C)C4)c(C#N)cn2)C1 [US10717746, Example 39] the IC50 was 0.062 µM.

Compound CC(=O)N[C@@H]1CCC[C@H](C(=O)Nc2cc(-c3cnn4c3CC(C)(C)CC4)ccn2)C1 [US10717746, Example 44] has an IC50 of 0.008 µM.

Work on CC(=O)N[C@@H]1CC[C@H](C(=O)Nc2cc(-c3cnn4c3CC(C)(C)C4)c(Cl)cn2)C1 [US10717746, Example 48] yielded an IC50 of 0.003 µM.

For CC(=O)N[C@@H]1CCC[C@H](C(=O)Nc2cc(-c3cnn4c3CCCC4)c(F)cn2)C1 [US10717746, Example 63], the IC50 was 0.051 µM.

For CC(=O)N[C@@H]1CCC[C@H](C(=O)Nc2cc(-c3cnn4c3CCCCC4)c(Cl)cn2)C1 [US10717746, Example 66], the IC50 was 0.023 µM.

Work on CC(=O)N[C@@H]1CCC[C@H](C(=O)Nc2cc(-c3cnn4c3CCCC4O)c(Cl)cn2)C1 (stereo partly specified) [US10717746, Example 78] yielded an IC50 of 0.06 µM.

CC(=O)N[C@@H]1CCC[C@H](C(=O)Nc2cc(-c3cn[nH]c3CCCCO)c(Cl)cn2)C1 [US10717746, Example 78a] was tested, and the IC50 was 0.085 µM.

In the case of CC(=O)N[C@@H]1CCC[C@H](C(=O)Nc2cc(-c3cn[nH]c3CC(C)(C)CO)c(Cl)cn2)C1 [US10717746, Example 82a], the IC50 is reported as 0.139 µM.
